These results are taken from patent US20250057979A1, “CARDIAC CALCIUM HANDLING MACHINERY REMODELED IN FRIEDREICH'S ATAXIA” (University of South Florida, priority 2023, published 2025).

In assay [1] the test system is ventricular myocytes from FXN-KO and FXN-WT mice. The experiment in a line: Oxygen consumption rate (OCR), XFp24 Cell Mito Stress Test (Agilent Seahorse). The class given is cell-based, mouse. Conditions: isolated ventricular myocytes. The procedure: To investigate how mitochondrial respiration was affected in FA, OCR was measured herein using XFp24 Cell Mito Stress Test (Catalog #B05423; Agilent Seahorse). One day prior to the experiment, XFp24 cell culture plates were coated with gelatin/fibronectin at 37° C. Ventricular myocytes were enzymatically isolated from FXN-KO and FXN-WT mice. We dissociated myocytes in DMEM medium (Seahorse Bioscience), supplemented with 1 mM pyruvate, 2 mM glutamine, and 10 mM D-glucose. We plated 2500 myocytes/well into 24 well seahorse plates for 10 min. OCR were measured using the Seahorse Bioscience XF24 Extracellular Flux Analyzer (Seahorse Bioscience). Measurements were taken as the cells were incubated sequentially under four conditions: 1) basal levels were measured with no additives; 2) oligomycin (1.5 μM) was added to inhibit ATP synthase and OXPHOS, showing glycolysis alone reversibly; 3) FCCP (1 μM), a mitochondrial uncoupler, was added to induce maximal respiration; and 4) Antimycin A (10 μM), a Complex III inhibitor, was added to obtain non-mitochondrial oxygen consumption background. The Seahorse software was used to extract the results and plotted them using GraphPad Prism. OCR was normalized to cell number per well.

Assay [2] relates to left ventricular myocytes from FXN-WT and FXN-KO. The note with it: 10 μM FCCP added after 15 min of time-dependent recording over 22 min; FXN-WT and FXN-KO cardiomyocytes.
Method: The mitochondrial membrane potential (ΔΨm) was measured using tetramethyl rhodamine methyl ester (TMRM) dye. Left ventricular myocytes from the FXN-WT and FXN-KO were plated in an eight-well confocal chamber (LAB-TEK, DK, Denmark; Catalog #155409,) for 20 minutes, and cells were incubated with TMRM (10 nmol/L; Invitrogen; Catalog #T668) for 20 minutes in Tyrode solution at 37° C. and washed two times with Tyrode solution. After incubation with the dye, live cells were imaged for 20 min in 2 min intervals on a confocal microscope (Olympus-IX) using a 63X-oil objective. […] Confocal settings were identical for FXN-WT and the FXN-KO myocytes.

With `N#CC(C#N)=NNc1ccc(OC(F)(F)F)cc1` [FCCP, carbonyl cyanide 4-(trifluoromethoxy) phenylhydrazone], the “OCR after injection of FCCP” value in assay [1] (FCCP 1 μM) is on record as “increased OCR to maximal levels”. Further, in assay [2], the “ΔΨm (TMRM fluorescence) after addition of FCCP” value is recorded as “decreased”.
For `CC[C@H]1/C=C/C=C/C[C@@H](C)[C@H](O)[C@@](C)(O)C(=O)[C@@H](C)[C@H](O)[C@@H](C)C(=O)[C@@H](C)[C@H](O)[C@@H](C)/C=C/C(=O)O[C@@H]2[C@H](C)[C@H](CC1)O[C@]1(CC[C@H](C)[C@H](C[C@@H](C)O)O1)[C@H]2C` [Oligomycin, oligomycin], the “OCR after injection of oligomycin” value in assay [1] (oligomycin 1.5 μM) is on record as “decreased”.
Regarding Antimycin A, the “OCR after injection of antimycin A” value in assay [1] (Antimycin A 10 μM) is on record as “reduced”.
